pEC50, pIC50: −log10 of the molar value.
What was measured:
Glucocorticoid receptor [1] = target: T1, Glucocorticoid receptor (Rattus norvegicus, UniProt P06536); experiment: Agonist activity at glucocorticoid receptor in rat INS-1 832/13 cells transfected with CCL2-promoter luciferase plasmid construct assessed as reduction in IL-1 beta induced inflammation by luciferase reporter gene assay; type: cell-based
T1 sequence (P06536 whole entry): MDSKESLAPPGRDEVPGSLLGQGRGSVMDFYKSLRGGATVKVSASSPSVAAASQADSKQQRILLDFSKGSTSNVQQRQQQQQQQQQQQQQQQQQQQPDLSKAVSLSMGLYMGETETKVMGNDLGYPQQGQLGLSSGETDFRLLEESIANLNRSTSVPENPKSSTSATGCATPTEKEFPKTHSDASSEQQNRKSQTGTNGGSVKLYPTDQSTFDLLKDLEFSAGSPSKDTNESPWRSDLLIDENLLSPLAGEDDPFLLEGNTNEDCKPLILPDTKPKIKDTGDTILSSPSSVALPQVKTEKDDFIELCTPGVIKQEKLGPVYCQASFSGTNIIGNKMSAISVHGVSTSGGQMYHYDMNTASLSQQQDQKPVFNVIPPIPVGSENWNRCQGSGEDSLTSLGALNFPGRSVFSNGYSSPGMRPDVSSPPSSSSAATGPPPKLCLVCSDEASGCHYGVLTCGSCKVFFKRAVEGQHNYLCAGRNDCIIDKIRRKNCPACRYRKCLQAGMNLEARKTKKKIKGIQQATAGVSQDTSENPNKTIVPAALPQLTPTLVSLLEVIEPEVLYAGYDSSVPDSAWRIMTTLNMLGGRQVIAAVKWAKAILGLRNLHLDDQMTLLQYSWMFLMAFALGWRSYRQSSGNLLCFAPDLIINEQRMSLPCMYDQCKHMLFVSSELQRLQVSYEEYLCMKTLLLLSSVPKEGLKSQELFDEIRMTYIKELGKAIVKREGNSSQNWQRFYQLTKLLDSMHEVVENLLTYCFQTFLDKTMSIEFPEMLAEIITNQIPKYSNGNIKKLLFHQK

Glucocorticoid receptor [2] = target: T1, Glucocorticoid receptor; experiment: Agonist activity at glucocorticoid receptor in rat INS-1 832/13 cells transfected with 3XGRE-promoter luciferase plasmid construct assessed as induction of receptor transactivation by luciferase reporter gene assay; type: cell-based

Compound | pIC50 (Glucocorticoid receptor [1]) | pEC50 (Glucocorticoid receptor [2])
CC[C@H](O)[C@H]1CCCC2=Cc3c(cnn3-c3ccc(F)cc3)C[C@@]21C | 7.70 | 5.00
C[C@]12Cc3cnn(-c4ccc(F)cc4)c3C=C1CCC[C@@H]2CO | 8.30 | 7.50
C[C@]12Cc3cnn(-c4ccc(F)cc4)c3C=C1CCC[C@@H]2[C@H](O)c1ccccc1 | 5.40 | 7.60
C[C@]12Cc3cnn(-c4ccc(F)cc4)c3C=C1CCC[C@@H]2[C@@H](O)C1CC1 | 7.50 | 6.00
C[C@]12Cc3cnn(-c4ccc(F)cc4)c3C=C1CCC[C@@H]2[C@@H](O)C1CCCC1 | 6.40 | 5.50
C[C@]12Cc3cnn(-c4ccc(F)cc4)c3C=C1CCC[C@@H]2[C@H](O)C1CC1 | 5.70 | 9.30
CC(C)[C@@H](O)[C@H]1CCCC2=Cc3c(cnn3-c3ccc(F)cc3)C[C@@]21C | 6.80 | 5.80
CC(C)[C@H](O)[C@H]1CCCC2=Cc3c(cnn3-c3ccc(F)cc3)C[C@@]21C | 9.20 | 5.80
C[C@]12Cc3cnn(-c4ccc(F)cc4)c3C=C1CCC[C@@H]2[C@H](O)c1c(F)c(F)c(F)c(F)c1F | 7.60 | 5.70
C[C@]12Cc3cnn(-c4ccc(F)cc4)c3C=C1CCC[C@@H]2[C@@H](O)c1c(F)c(F)c(F)c(F)c1F | 7.50 | 6.60
C[C@@H](O)[C@H]1CCCC2=Cc3c(cnn3-c3ccc(F)cc3)C[C@@]21C | 9.50 | 7.50
C[C@]12Cc3cnn(-c4ccc(F)cc4)c3C=C1CCC[C@@H]2[C@@H](O)c1ccccc1 | 7.70 | 7.20
C[C@H](O)[C@H]1CCCC2=Cc3c(cnn3-c3ccc(F)cc3)C[C@@]21C | 7.20 | 5.60
CC[C@@H](O)[C@H]1CCCC2=Cc3c(cnn3-c3ccc(F)cc3)C[C@@]21C | 7.80 | 5.60

From ChEMBL document CHEMBL5120980, “Stereoisomers of an Aryl Pyrazole Glucocorticoid Receptor Agonist Scaffold Elicit Differing Anti-inflammatory Responses” (ACS Med Chem Lett, 2022)
